According to patent US9861606B2, “Therapeutic for treating inflammatory lung disorders” (University College Cardiff Consultants Limited, priority 2012, dated 2018):
“Also recorded” adds a separate entry of the source.

Legend:
[1] = system: Dunkin-Hartley guinea pigs; assay: Inflammatory cell infiltration in BALF of LPS-treated guinea pig model of COPD; assay type: in vivo; conditions: nebulised 3 micromolar, 30 min before LPS
Procedure: FIG. 15. The calcilytic NPS89636 reduces inflammatory cell infiltration detected in the bronchioalveolar lavage fluid (BALF) from guinea pigs with LPS-induced COPD. Male Dunkin-Hartley guinea pigs (500-550 g) were exposed to 30 micrograms/ml of nebulized lipopolysaccharide (LPS) in saline for 1 hour on alternate days for nine exposures. Animals received nebulised 3 micromolar NPS89636 (or 0.3% DMSO vehicle) for 9 days starting after exposure 5 for 30 min, 30 min before LPS exposure every other day. Animals were killed 24 hours after the ninth exposure (1.5 mL of Euthatal IP) and BALF was collected and cells were counted the same day as described in FIG. 14. Data are presented as mean±S.E.M. Significant differences between vehicle and calcilytic are indicated, p<0.05, n=6. […] For the total cell counts 100 microliters of the concentrated BALF from OVA-sensitised mice or 100 microliters of the diluted BALF from guinea pigs were applied to the Cytospin 3 Shandon cell smearing system (using glass slides from Thermo Scientific (BS7011/2; 0.8-1 mm, 76×26 mm) and filter paper from Thermo Scientific (5991022; Shandon filter cards) at 1000 rt/min for 7 minutes. The slides then were immersed into 1.5% […] stain in methanol for 6 min, then briefly washed in water twice. The slides were allowed to dry overnight, and the cells were counted using 100× oil immersion objective.

[2] = target: T1, human CaSR (Homo sapiens, UniProt P41180); assay: Intracellular Ca2+ (fura-2, F/F0) in HEK293 cells stably expressing human CaSR; assay type: cell-based; conditions: 100 nM calcilytic, HEK-CaSR
T1 construct: expressed in transfected cells; control HEK-0 with empty vector
T1 sequence (P41180 20-1078): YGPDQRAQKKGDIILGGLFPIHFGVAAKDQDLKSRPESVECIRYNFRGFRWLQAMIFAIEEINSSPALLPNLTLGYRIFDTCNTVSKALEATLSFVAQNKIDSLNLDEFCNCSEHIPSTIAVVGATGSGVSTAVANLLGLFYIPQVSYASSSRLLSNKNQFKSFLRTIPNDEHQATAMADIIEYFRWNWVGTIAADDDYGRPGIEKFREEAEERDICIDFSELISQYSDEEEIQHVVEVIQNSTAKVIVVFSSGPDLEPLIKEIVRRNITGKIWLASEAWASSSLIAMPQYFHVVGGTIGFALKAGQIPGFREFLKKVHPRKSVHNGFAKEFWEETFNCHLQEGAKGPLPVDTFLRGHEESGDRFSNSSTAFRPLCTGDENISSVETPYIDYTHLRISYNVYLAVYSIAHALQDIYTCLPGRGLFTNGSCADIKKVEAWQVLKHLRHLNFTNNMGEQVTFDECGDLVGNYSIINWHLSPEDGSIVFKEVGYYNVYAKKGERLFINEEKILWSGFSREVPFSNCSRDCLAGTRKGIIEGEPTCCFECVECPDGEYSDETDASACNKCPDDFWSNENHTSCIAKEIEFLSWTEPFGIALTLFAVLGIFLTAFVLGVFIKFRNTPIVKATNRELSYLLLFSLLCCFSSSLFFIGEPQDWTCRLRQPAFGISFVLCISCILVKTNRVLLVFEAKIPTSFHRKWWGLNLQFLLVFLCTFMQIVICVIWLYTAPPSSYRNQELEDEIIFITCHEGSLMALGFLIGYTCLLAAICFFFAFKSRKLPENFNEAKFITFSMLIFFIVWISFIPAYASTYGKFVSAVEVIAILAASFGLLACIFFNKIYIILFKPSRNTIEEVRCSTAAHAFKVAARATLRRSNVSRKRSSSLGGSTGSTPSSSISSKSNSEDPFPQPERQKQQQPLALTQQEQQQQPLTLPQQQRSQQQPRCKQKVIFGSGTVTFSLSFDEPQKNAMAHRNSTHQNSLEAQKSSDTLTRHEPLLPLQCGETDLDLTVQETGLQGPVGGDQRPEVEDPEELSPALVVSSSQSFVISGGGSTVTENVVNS
Procedure: The structurally unrelated calcilytic NPS2143 also prevents spermine-induced CaSR activation (D). […] Note that ECP serum concentrations in asthmatic subjects are believed to be 30 μg/ml. n=121-487 cells, 3-9 experiments. Data are mean±SEM. Where differences are significant, they are shown above the bars. FIG. 6. Ca^2+o activates the CaSR, an effect which can be prevented by the calcilytic NPS89636. HEK293 cells stably expressing the human CaSR (HEK-CaSR) or transfected with empty vector (HEK-0) were loaded with 4 μM fura-2 AM and exposed to 5 mM Ca^2+o in the absence or presence of the calcilytic, NPS89636 (100 nM). Data are from >3 experiments and 121-386 cells. Significant differences are shown above the bars. […] The ability of a structurally unrelated calcilytic, NPS2143 (1-10 μM), was also tested on spermine-induced Ca^2+i mobilisation in HEK-CaSR. Ca^2+i release was measured as peak/baseline fluorescence (F/F0). Note that ECP serum concentrations in asthmatic subjects increase with disease severity and are believed to reach 30 μg/ml.

Structure (SMILES): CCc1ccc(CC(C)(C)NCC(O)COc2cc(-c3ccc(C(=O)O)cc3)ccc2C#N)c(F)c1.Cl (stereo in doubt) [NPS89636, (S)-4′-cyano-3′-[3-[2-(4-ethyl-2-fluorophenyl)-1,1-dimethylethylamino]-2-hydroxy-propoxy]-biphenyl-4-carboxylic acid hydrochloride]
- Effect on inflammatory cell infiltration (BALF), LPS-treated guinea pig [1]: a reduction in the inflammatory cell infiltration, especially of lymphocytes and neutrophils
- Effect of calcilytic on polycation-evoked Ca2+i release (F/F0) ([2]; 300 nM poly-L-arginine, 1 mM spermine or 10 μg/ml ECP, hydrochloride): completely eliminated; also recorded: significantly reduced
- Effect of calcilytic on Ca2+i increase evoked by 5 mM Ca2+o [2]: blocked
